Broadly, the Kd is the free concentration of one partner at which half of the binding sites on the other are occupied at equilibrium, for simple one-to-one binding. A low value points to higher affinity.

Read-outs that look alike come from different tables or passages of the source. Starred links: 1 amine or outer side, 2 acyl side, 3 side chain; linkers in the order of their positions; H or OH if unused. Positions of bridges follow the written chain, without caps; N, C: chain ends. Non-standard residues stand in square brackets, D forms with d. Residues, ends and D or L forms follow the SMILES beside them. Groups on a side chain read outwards from the residue. Trimesoyl = O=C(c1cc(C(=O)[*:2])cc(C(=O)[*:3])c1)[*:1]; d(pT) = C[C@H](OP(=O)(O)O)[C@@H](N)C(=O)O; Phe(4-F) = N[C@@H](Cc1ccc(F)cc1)C(=O)O; 2Nal = N[C@@H](Cc1ccc2ccccc2c1)C(=O)O; NMeF = CN[C@@H](Cc1ccccc1)C(=O)O; Pip = O=C(O)[C@@H]1CCCCN1; Dap = NC[C@H](N)C(=O)O; Sar = CNCC(=O)O

One assay has as its system Jurkat cells. The experiment in a line: In cellulo fluorimetric caspase assay. It is filed as cell-based. The conditions noted are these: staurosporin-treated cells, 5 μM peptide, 10-h period. The procedure:
100 μL of Jurkat cell suspension (5×10^5 cells/mL) was seeded in 96-well plate one hour prior to the experiment. Ten μL of staurosporine stock solution (10 μM) was added into half of the wells to induce apoptosis, while 10 μL of media was added to the other wells. After 1 h incubation, caspase-3 fluorogenic substrates were added to the cells to a final concentration of 5 μM. The fluorescence of the released coumarin was measured on the Spectramax M5 plate reader with excitation and emission wavelengths at 360 and 440 nm at various times points (0-6 h). The fluorescence unit (FU) increases between induced and uninduced cells were plotted against the time to present caspase-3 activities measured using various fluorogenic substrates in living cell in real-time. Three independent sets of experiments, each performed in triplicate, were conducted.
Jurkat cells were pretreated with the kinase inhibitor staurosporin to induce caspase activities and thus apoptosis (Belmokhtar, C A et al. Biochem. J. 1996, 315, 21). These cells were then incubated with peptides 3-7 and the amount of Amc released was monitored at various time points (0-10 h). […] Peptide 4 produced the fastest fluorescence increase, reaching 459 fluorescence units (FU), followed by peptides 7 and 6. […] This slow rate of AMC release can be attributed to hydrolysis by other intracellular proteases and peptidases. Consistent with this interpretation, pretreatment of Jurkat cells with a pancaspase inhibitor Z-VAD(OMe)-FMK (Slee, E A et al. Biochem J. 1996, 315, 21) followed by incubation with peptide 4 released AMC at a rate that was similar to that of peptide 5 alone. One explanation of the above observations is that both peptides 4 and 5 can enter the cell interior efficiently, but only peptide 4 can be converted into the linear caspase substrate inside the cells.

Assay [1] deals with HeLa cells. The assay can be described thus: MTT proliferation assay with Pin1 inhibitors. The conditions noted are these: MTT. It is filed as cell-based, human. How it is done: HeLa cells (100 μL/each well, 5×10^4 cells/mL) were seeded in a 96-well culture plate and allowed to grow overnight in DMEM supplemented with 10% FBS. […] After that, 10 μL of a MTT stock solution (5 mg/mL) was added into each well. The plate was incubated at 37° C. for 4 h and 100 μL of SDS-HCl solubilizing solution was added into each well, followed by thorough mixing. The plate was incubated at 37° C. overnight and the absorbance of the formazan product was measured at 570 nm on a Molecular Devices Spectramax M5 plate reader. Each experiment was performed in triplicates and the cells untreated with peptide were used as control.
A general note: Formazan colour is commonly taken as a measure of viable cells.

In assay [2] the target is T1, Pin1 (Homo sapiens, UniProt Q13526, S16A/Y23A).
T1 construct: The full-length human S16A/Y23A mutant Pin1 was expressed and purified from E. coli; made in house
The experiment in a line: Fluorescence anisotropy binding to Pin1. The conditions noted are these: FITC-labeled peptide, FA analysis. How it is done:
The gene coding for the catalytic domain of PTP1B (amino acids 1-321) was amplified by the polymerase chain reaction using PTP1B cDNA as template and oligonucleotides 5′-[…]-3′ and 5′-[…]-3′ as primers. […] Expression and purification of the ybbR-tagged PTP1B were carried out as previously described (Ren, L et al. Biochemistry 2011, 50, 2339-2356). […] The reaction mixture was passed through a G-25 fast-desalting column equilibrated in 30 mM HEPES, pH 7.4, 150 mM NaCl to remove any free dye molecules. The full-length human S16A/Y23A mutant Pin1 was expressed and purified from E. coli as previously described (Liu, T et al. J. Med. Chem. 2010, 53, 2494-2501).
FA experiments were carried out by incubating 100 nM FITC-labeled peptide with varying concentrations of protein in 20 mM HEPES (pH 7.4), 150 mM NaCl, 2 mM magnesium acetate, and 0.1% bovine serum albumin (BSA) for 2 h at room temperature. The FA values were measured on a Molecular Devices Spectramax M5 plate reader, with excitation and emission wavelengths at 485 and 525 nm, respectively. Equilibrium dissociation constants (KD) were determined by plotting the FA values as a function of protein concentration and fitting the curve to the following equation:
[formula] where Y is the FA value at a given protein concentration x, L is the peptide concentration, Qb/Qf is the correction factor for fluorophore-protein interaction, Amax is the maximum FA value when all of the peptides are bound to protein, while Amin is the minimum FA value when all of the peptides are free. FA competition assay was performed by incubating 100 nM FITC-labeled Pin1 inhibitor 5 with 1 μM Pin1, followed by the addition of 0-5 μM unlabeled inhibitor. The FA values were measured similarly on a pate reader. IC50 values were obtained by plotting the FA values against the competitor concentration and curve fitting using the four-parameter dose-response inhibition equation (Prism 6, GraphPad).
(Polarisation of emitted light reports the rotation of a fluorescent probe.)

Assay [3] has as its system HeLa cells. The experiment in a line: Western blot of PML protein level. In kind it is cell-based, human. The conditions noted are these: 0.2-5 μM. The procedure:
FIGS. 38A, 38B, 38C, and 38D display cellular activity of peptide 37. (FIG. 38A) Cellular uptake of peptides 1, 37, and 46 (5 μM) by HeLa cells as analyzed by flow cytometry. MFI, mean fluorescence intensity; none, untreated cells (no peptide). (FIG. 38B) Anti-proliferative effect of peptides 37, 46, and 47 on HeLa cells as measured by MTT assay. (FIG. 38C) Western blots showing the effect of peptides 1, 37 and 47 on the protein level of PML in HeLa cells. β-Actin was used as loading control. (FIG. 38D) Quantification of western blot results from (FIG. 38C). Data reported were after background subtraction and represent the mean±SD from 3 independent experiments.
Finally, to ascertain that Pin1 is the molecular target of peptide 37 in vivo, the intracellular protein level of a well-established Pin1 substrate, […] (PML), was examined by western blot analysis. Pin1 negatively regulates the PML level in a phosphorylation-dependent manner and inhibition of Pin1 activity is expected to stabilize PML and increase its intracellular level. […] The effect was already significant at 0.2 μM inhibitor (1.8-fold increase in the PML level) and plateaued at ˜1 μM (3.3-fold increase). Again, bicyclic peptide 47 had no effect under the same conditions, while peptide 1 (the positive control, at 5 μM) increased the PML level by 3.1-fold.
On the technique in general: Immunoblotting shows a protein as a band on a membrane.

In assay [4] the test system is HeLa cells. The conditions noted are these: MTT.
From the text: The effect of peptide 37 on the growth of HeLa cells was examined by using the MTT cell viability assay.
The target in assay [5] is T1, Pin1. The assay can be described thus: Pin1 binding by FA (FITC-labeled peptides).
Assay [6] has as its system HeLa cells. The experiment in a line: Cellular uptake by flow cytometry. It is filed as cell-based, human. The conditions noted are these: 5 μM FITC-labeled peptide, 2 h. How it is done:
The cellular uptake efficiency of peptide 37, peptide 1, and a previously reported membrane-impermeable monocyclic Pin1 inhibitor (Table 18, peptide 46) was assessed by incubating HeLa cells with the FITC-labeled peptides (5 μM) for 2 h and quantifying the total intracellular fluorescence by flow cytometry analysis. […] By contrast, cells treated with peptides 1 and 37 gave MFI values of 2562 and 8792, respectively. Thus, peptide 37 is internalized by HeLa cells ˜4-fold more efficiently than peptide 1. Presumably, the negative charged phosphate group of peptide 1 interacted electrostatically with the positively charged CPP motif and reduced the cellular uptake efficiency of the latter.

As to `C[C@@H]1NC(=O)[C@H](CCCNC(=N)N)NC(=O)[C@H](Cc2ccc3ccccc3c2)NC(=O)[C@@H]2CCCCN2C(=O)[C@@H]([C@H](C)O)NC(=O)CNC(=O)[C@H](Cc2ccccc2)N(C)C(=O)c2cc3cc(c2)C(=O)NC[C@H](NC(=O)[C@@H](C)NC1=O)C(=O)N[C@@H](Cc1ccccc1)C(=O)N[C@@H](Cc1ccc2ccccc2c1)C(=O)N[C@@H](CCCNC(=N)N)C(=O)N[C@@H](CCCNC(=N)N)C(=O)N[C@@H](CCCNC(=N)N)C(=O)N[C@@H](CCCNC(=N)N)C(=O)N[C@H](C(=O)N[C@@H](CCCCN)C(N)=O)CNC3=O` [Peptide 5, bicyclo[Tm-(Mpa-Gly-D-Thr-Pip-Nal-Arg-Ala-D-Ala)-Dap-(Phe-Nal-Arg-Arg-Arg-Arg-Dap)]-Lys] ([NMeF]G[dT][Pip][2Nal]RA[dA][Dap]F[2Nal]RRRR[Dap]K-NH2; linker N-9-16 via Trimesoyl; C-terminus assumed), the “Fluorescence increase (released Amc)” value with Jurkat cells was 99 FU.

Turning to `C[C@@H]1NC(=O)[C@H](CCCNC(=N)N)NC(=O)[C@H](Cc2ccc3ccccc3c2)NC(=O)[C@@H]2CCCCN2C(=O)[C@@H](CC(=O)O)NC(=O)CN(C)C(=O)[C@@H]2CCCN2C(=O)c2cc3cc(c2)C(=O)NC[C@@H](C(=O)N[C@@H](CCCCN)C(N)=O)NC(=O)[C@H](CCCNC(=N)N)NC(=O)[C@H](CCCNC(=N)N)NC(=O)[C@H](CCCNC(=N)N)NC(=O)[C@H](CCCNC(=N)N)NC(=O)[C@H](Cc2ccc4ccccc4c2)NC(=O)[C@H](Cc2ccccc2)NC(=O)[C@H](CNC3=O)NC1=O` [Peptide 9, bicyclo[Tm-(Pro-Sar-D-Asp-Pip-Nal-Arg-Ala)-Dap-(Phe-Nal-Arg-Arg-Arg-Arg-Dap)]-Lys] (P[Sar][dD][Pip][2Nal]RA[Dap]F[2Nal]RRRR[Dap]K-NH2; linker N-8-15 via Trimesoyl; C-terminus assumed), the “Effect on cell growth” value in the assay on HeLa cells [1] is given as “no effect”. Moreover, the KD result on Pin1 [2] is reported as “abolished Pin1 inhibitory activity”.

On to “bicyclo[Tm-(D-Ala-Sar-D-Thr-D-Ala-Nal-Arg-Ala-D-Ala)-Dap-(Phe-Nal-Arg-Arg-Arg-Arg-Dap)]-Lys [Peptide 47]”, for which, in the assay with HeLa cells [3], the “Effect on the PML level” value is “no effect”. Besides, in the assay with HeLa cells [4], the “Effect on cell growth” value is given as “neither peptide 46 nor 47 had any effect”. Moreover, the “KD (μM)” value with Pin1 [5] (FITC-labeled peptide, FA) is on record as “No”.

Consider `C[C@@H]1NC(=O)[C@H](CCCNC(=N)N)NC(=O)[C@H](Cc2ccc3ccccc3c2)NC(=O)[C@@H]2CCCCN2C(=O)[C@@H]([C@H](C)O)NC(=O)[C@H](Cc2ccc(F)cc2)NC(=O)[C@@H](Cc2ccccc2)NC(=O)c2cc3cc(c2)C(=O)NC[C@H](NC(=O)[C@@H](C)NC1=O)C(=O)N[C@@H](Cc1ccccc1)C(=O)N[C@@H](Cc1ccc2ccccc2c1)C(=O)N[C@@H](CCCNC(=N)N)C(=O)N[C@@H](CCCNC(=N)N)C(=O)N[C@@H](CCCNC(=N)N)C(=O)N[C@@H](CCCNC(=N)N)C(=O)N[C@H](C(=O)N[C@@H](CCCCN)C(N)=O)CNC3=O` [Peptide 4, bicyclo[Tm-(D-Phe-Fpa-D-Thr-Pip-Nal-Arg-Ala-D-Ala)-Dap-(Phe-Nal-Arg-Arg-Arg-Arg-Dap)]-Lys] ([dF][Phe(4-F)][dT][Pip][2Nal]RA[dA][Dap]F[2Nal]RRRR[Dap]K-NH2; linker N-9-16 via Trimesoyl; C-terminus assumed), for which, in the assay on Jurkat cells, the “Fluorescence increase (released Amc)” value is given as 459 FU.

On to `C[C@@H]1NC(=O)[C@H](CCCNC(=N)N)NC(=O)[C@H](Cc2ccc3ccccc3c2)NC(=O)[C@@H]2CCCCN2C(=O)[C@@H](CC(=O)O)NC(=O)CN(C)C(=O)[C@@H]2CCCN2C(=O)c2cc3cc(c2)C(=O)NC[C@H](NC(=O)[C@@H](C)NC1=O)C(=O)N[C@@H](Cc1ccccc1)C(=O)N[C@@H](Cc1ccc2ccccc2c1)C(=O)N[C@@H](CCCNC(=N)N)C(=O)N[C@@H](CCCNC(=N)N)C(=O)N[C@@H](CCCNC(=N)N)C(=O)N[C@@H](CCCNC(=N)N)C(=O)N[C@H](C(=O)N[C@@H](CCCCN)C(N)=O)CNC3=O` [Peptide 3, bicyclo[Tm-(Pro-Sar-D-Asp-Pip-Nal-Arg-Ala-D-Ala)-Dap-(Phe-Nal-Arg-Arg-Arg-Arg-Dap)]-Lys] (P[Sar][dD][Pip][2Nal]RA[dA][Dap]F[2Nal]RRRR[Dap]K-NH2; linker N-9-16 via Trimesoyl), for which, in the assay on Jurkat cells, the “Fluorescence increase (released Amc)” value was “little fluorescence increase”.

`C[C@H](OP(=O)(O)O)[C@H]1NC(=O)CN(C)C(=O)[C@@H](C)NC(=O)[C@H](CCC(=O)N[C@@H](CCCCN)C(N)=O)NC(=O)[C@H](Cc2ccc(O)cc2)NC(=O)[C@H](Cc2ccc3ccccc3c2)NC(=O)[C@@H]2CCCCN2C1=O` [Peptide 46, cyclo(D-Ala-Sar-D-pThr-Pip-Nal-Tyr-Gln)-Lys, reference compound] (cyclo([dA][Sar][d(pT)][Pip][2Nal]YE([Lys-NH2])); ring closure inferred): the “Mean fluorescence intensity (MFI)” value in the assay on HeLa cells [6] came to 193. Also, the “Effect on cell growth” value with HeLa cells [1] is reported as “no effect”; in the assay with HeLa cells [4], “neither peptide 46 nor 47 had any effect”. This compound displayed a Kd at Pin1 [5] of 240 ± 40 nM.

These data come from patent US10815276B2, “Cell penetrating peptides and methods of making and using thereof” (Entrada Therapeutics, Inc., priority 2014, dated 2020).
